According to US12497365B2, “4-pyridinyl formamide compound or derivative thereof, preparation method therefor, herbicidal composition and use thereof” (Qingdao Kingagroot Chemical Compound Co., Ltd., priority 2019, dated 2025):

system: Abutilon theophrasti; assay: Weeding effect in post-emergence stage; assay type: in vivo; settings: active ingredient 2000 g/ha, 3 weeks after application, fresh weight control rate
In short: (§1)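 Pot-grown weeds at the 2-3 leaf stage receive a tower spray of test compound at 2000, 1000, 500, 250 or 125 g/ha, formulated in acetone with Tween 80 and methyl oleate synergist. Fresh weight reduction is rated on an activity scale 3 weeks later.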

| SMILES | Weeding effect, activity level (growth control rate), Abutilon theophrasti |
| --- | --- |
| Cn1nnnc1NC(=O)c1ccnc(-c2cncs2)c1Cl [Compound 1-229] | 5 (Level 5: growth control rate is above 85%) |
| O=C(Nc1nnc(C2CC2)o1)c1ccnc(-c2ccc(F)cc2)c1Cl [Compound 1-1257] | 5 (Level 5: growth control rate is above 85%) |
| Cn1nnnc1NC(=O)c1ccnc(-c2ccc(F)cc2)c1C1CC1 [Compound 1-221] | 5 (Level 5: growth control rate is above 85%) |
| Cn1nnnc1NC(=O)c1ccnc(-c2cccc(C#N)c2F)c1Cl [Compound 1-80] | 5 (Level 5: growth control rate is above 85%) |
| Cn1nnnc1NC(=O)c1ccnc(-c2ccc(F)cc2)c1[N+](=O)[O-] [Compound 1-212] | 5 (Level 5: growth control rate is above 85%) |
| Cn1nnnc1NC(=O)c1ccnc(-c2ccccc2OC(F)(F)F)c1Cl [Compound 1-31] | 5 (Level 5: growth control rate is above 85%) |
| Cn1nnnc1NC(=O)c1ccnc(-c2cc(C(C)(C)C)cc(C(C)(C)C)c2)c1Cl [Compound 1-61] | 5 (Level 5: growth control rate is above 85%) |
| Cn1nnnc1NC(=O)c1ccnc(-c2ccc(C(F)(F)F)cc2C(F)(F)F)c1Cl [Compound 1-76] | 5 (Level 5: growth control rate is above 85%) |
| Cn1nnnc1NC(=O)c1ccnc(-c2ccnc(Cl)c2Cl)c1Cl [Compound 1-152] | 5 (Level 5: growth control rate is above 85%) |
| Cn1nnnc1NC(=O)c1ccnc(-c2ccc(C(F)(F)F)nc2)c1Cl [Compound 1-142] | 5 (Level 5: growth control rate is above 85%) |
| Cn1nnnc1NC(=O)c1ccnc(-c2ccc(F)cc2)c1[S+](C)[O-] (stereo not shown) [Compound 1-205] | 5 (Level 5: growth control rate is above 85%) |
| Cc1c(-c2nccc(C(=O)Nc3nnnn3C)c2Cl)cnn1C [Compound 1-170] | 5 (Level 5: growth control rate is above 85%) |
| Cn1nnnc1NC(=O)c1ccnc(-c2cc(F)ccc2F)c1Cl [Compound 1-63] | 5 (Level 5: growth control rate is above 85%) |
| Cn1nnnc1NC(=O)c1ccnc(-c2ccc(C#N)s2)c1Cl [Compound 1-192] | 5 (Level 5: growth control rate is above 85%) |
| Cn1nnnc1NC(=O)c1ccnc(-c2nccs2)c1Cl [Compound 1-230] | 5 (Level 5: growth control rate is above 85%) |
| Cn1nnnc1NC(=O)c1ccnc(-c2cnc(N)nc2)c1Cl [Compound 1-160] | 5 (Level 5: growth control rate is above 85%) |
| Cc1cccc(-c2nccc(C(=O)Nc3nnnn3C)c2Cl)c1 [Compound 1-10] | 5 (Level 5: growth control rate is above 85%) |
| Cn1nnnc1NC(=O)c1ccnc(-c2cccc(Br)c2)c1Cl [Compound 1-21] | 5 (Level 5: growth control rate is above 85%) |
| Cn1nnnc1NC(=O)c1ccnc(C2CC2)c1Cl [Compound 1-3] | 5 (Level 5: growth control rate is above 85%) |
| COc1cccc(-c2nccc(C(=O)Nc3nnnn3C)c2Cl)c1F [Compound 1-72] | 5 (Level 5: growth control rate is above 85%) |
| CSc1c(C(=O)Nc2nnnn2C)ccnc1-c1ccc(C#N)cc1 [Compound 1-2052] | 5 (Level 5: growth control rate is above 85%) |
| Cn1nnnc1NC(=O)c1ccnc(-c2ccc(Cl)cc2Cl)c1Cl [Compound 1-86] | 5 (Level 5: growth control rate is above 85%) |

system: Amaranthus retroflexus L.; assay: Weeding effect in post-emergence stage; assay type: in vivo; settings: active ingredient 2000 g/ha, 3 weeks after application, fresh weight control rate
In short: as §1

| SMILES | Weeding effect, activity level (growth control rate), Amaranthus retroflexus L. |
| --- | --- |
| Cn1nnnc1NC(=O)c1ccnc(-c2cncs2)c1Cl [Compound 1-229] | 5 (Level 5: growth control rate is above 85%) |
| O=C(Nc1nnc(C2CC2)o1)c1ccnc(-c2ccc(F)cc2)c1Cl [Compound 1-1257] | 5 (Level 5: growth control rate is above 85%) |
| Cn1nnnc1NC(=O)c1ccnc(-c2ccc(F)cc2)c1C1CC1 [Compound 1-221] | 5 (Level 5: growth control rate is above 85%) |
| Cn1nnnc1NC(=O)c1ccnc(-c2cccc(C#N)c2F)c1Cl [Compound 1-80] | 5 (Level 5: growth control rate is above 85%) |
| Cn1nnnc1NC(=O)c1ccnc(-c2ccc(F)cc2)c1[N+](=O)[O-] [Compound 1-212] | 5 (Level 5: growth control rate is above 85%) |
| Cn1nnnc1NC(=O)c1ccnc(-c2ccccc2OC(F)(F)F)c1Cl [Compound 1-31] | 5 (Level 5: growth control rate is above 85%) |
| Cn1nnnc1NC(=O)c1ccnc(-c2cc(C(C)(C)C)cc(C(C)(C)C)c2)c1Cl [Compound 1-61] | 5 (Level 5: growth control rate is above 85%) |
| Cn1nnnc1NC(=O)c1ccnc(-c2ccc(C(F)(F)F)cc2C(F)(F)F)c1Cl [Compound 1-76] | 5 (Level 5: growth control rate is above 85%) |
| Cn1nnnc1NC(=O)c1ccnc(-c2ccnc(Cl)c2Cl)c1Cl [Compound 1-152] | 5 (Level 5: growth control rate is above 85%) |
| Cn1nnnc1NC(=O)c1ccnc(-c2ccc(C(F)(F)F)nc2)c1Cl [Compound 1-142] | 5 (Level 5: growth control rate is above 85%) |
| Cn1nnnc1NC(=O)c1ccnc(-c2ccc(F)cc2)c1[S+](C)[O-] (stereo not shown) [Compound 1-205] | 5 (Level 5: growth control rate is above 85%) |
| Cc1c(-c2nccc(C(=O)Nc3nnnn3C)c2Cl)cnn1C [Compound 1-170] | 5 (Level 5: growth control rate is above 85%) |
| Cn1nnnc1NC(=O)c1ccnc(-c2cc(F)ccc2F)c1Cl [Compound 1-63] | 5 (Level 5: growth control rate is above 85%) |
| Cn1nnnc1NC(=O)c1ccnc(-c2ccc(C#N)s2)c1Cl [Compound 1-192] | 5 (Level 5: growth control rate is above 85%) |
| Cn1nnnc1NC(=O)c1ccnc(-c2nccs2)c1Cl [Compound 1-230] | 5 (Level 5: growth control rate is above 85%) |
| Cn1nnnc1NC(=O)c1ccnc(-c2cnc(N)nc2)c1Cl [Compound 1-160] | 5 (Level 5: growth control rate is above 85%) |
| Cc1cccc(-c2nccc(C(=O)Nc3nnnn3C)c2Cl)c1 [Compound 1-10] | 5 (Level 5: growth control rate is above 85%) |
| Cn1nnnc1NC(=O)c1ccnc(-c2cccc(Br)c2)c1Cl [Compound 1-21] | 5 (Level 5: growth control rate is above 85%) |
| Cn1nnnc1NC(=O)c1ccnc(C2CC2)c1Cl [Compound 1-3] | 5 (Level 5: growth control rate is above 85%) |
| COc1cccc(-c2nccc(C(=O)Nc3nnnn3C)c2Cl)c1F [Compound 1-72] | 5 (Level 5: growth control rate is above 85%) |
| CSc1c(C(=O)Nc2nnnn2C)ccnc1-c1ccc(C#N)cc1 [Compound 1-2052] | 5 (Level 5: growth control rate is above 85%) |
| Cn1nnnc1NC(=O)c1ccnc(-c2ccc(Cl)cc2Cl)c1Cl [Compound 1-86] | 5 (Level 5: growth control rate is above 85%) |

system: Chenopodium album; assay: Weeding effect in post-emergence stage; assay type: in vivo; settings: active ingredient 2000 g/ha, 3 weeks after application, fresh weight control rate
In short: as §1

| SMILES | Weeding effect, activity level (growth control rate), Chenopodium album |
| --- | --- |
| Cn1nnnc1NC(=O)c1ccnc(-c2cncs2)c1Cl [Compound 1-229] | 5 (Level 5: growth control rate is above 85%) |
| O=C(Nc1nnc(C2CC2)o1)c1ccnc(-c2ccc(F)cc2)c1Cl [Compound 1-1257] | 5 (Level 5: growth control rate is above 85%) |
| Cn1nnnc1NC(=O)c1ccnc(-c2ccc(F)cc2)c1C1CC1 [Compound 1-221] | 5 (Level 5: growth control rate is above 85%) |
| Cn1nnnc1NC(=O)c1ccnc(-c2cccc(C#N)c2F)c1Cl [Compound 1-80] | 5 (Level 5: growth control rate is above 85%) |
| Cn1nnnc1NC(=O)c1ccnc(-c2ccc(F)cc2)c1[N+](=O)[O-] [Compound 1-212] | 5 (Level 5: growth control rate is above 85%) |
| Cn1nnnc1NC(=O)c1ccnc(-c2ccccc2OC(F)(F)F)c1Cl [Compound 1-31] | 5 (Level 5: growth control rate is above 85%) |
| Cn1nnnc1NC(=O)c1ccnc(-c2cc(C(C)(C)C)cc(C(C)(C)C)c2)c1Cl [Compound 1-61] | 5 (Level 5: growth control rate is above 85%) |
| Cn1nnnc1NC(=O)c1ccnc(-c2ccc(C(F)(F)F)cc2C(F)(F)F)c1Cl [Compound 1-76] | 5 (Level 5: growth control rate is above 85%) |
| Cn1nnnc1NC(=O)c1ccnc(-c2ccnc(Cl)c2Cl)c1Cl [Compound 1-152] | 5 (Level 5: growth control rate is above 85%) |
| Cn1nnnc1NC(=O)c1ccnc(-c2ccc(C(F)(F)F)nc2)c1Cl [Compound 1-142] | 5 (Level 5: growth control rate is above 85%) |
| Cn1nnnc1NC(=O)c1ccnc(-c2ccc(F)cc2)c1[S+](C)[O-] (stereo not shown) [Compound 1-205] | 5 (Level 5: growth control rate is above 85%) |
| Cc1c(-c2nccc(C(=O)Nc3nnnn3C)c2Cl)cnn1C [Compound 1-170] | 5 (Level 5: growth control rate is above 85%) |
| Cn1nnnc1NC(=O)c1ccnc(-c2cc(F)ccc2F)c1Cl [Compound 1-63] | 5 (Level 5: growth control rate is above 85%) |
| Cn1nnnc1NC(=O)c1ccnc(-c2ccc(C#N)s2)c1Cl [Compound 1-192] | 5 (Level 5: growth control rate is above 85%) |
| Cn1nnnc1NC(=O)c1ccnc(-c2nccs2)c1Cl [Compound 1-230] | 5 (Level 5: growth control rate is above 85%) |
| Cn1nnnc1NC(=O)c1ccnc(-c2cnc(N)nc2)c1Cl [Compound 1-160] | 5 (Level 5: growth control rate is above 85%) |
| Cc1cccc(-c2nccc(C(=O)Nc3nnnn3C)c2Cl)c1 [Compound 1-10] | 5 (Level 5: growth control rate is above 85%) |
| Cn1nnnc1NC(=O)c1ccnc(-c2cccc(Br)c2)c1Cl [Compound 1-21] | 5 (Level 5: growth control rate is above 85%) |
| Cn1nnnc1NC(=O)c1ccnc(C2CC2)c1Cl [Compound 1-3] | 5 (Level 5: growth control rate is above 85%) |
| COc1cccc(-c2nccc(C(=O)Nc3nnnn3C)c2Cl)c1F [Compound 1-72] | 5 (Level 5: growth control rate is above 85%) |
| CSc1c(C(=O)Nc2nnnn2C)ccnc1-c1ccc(C#N)cc1 [Compound 1-2052] | 5 (Level 5: growth control rate is above 85%) |
| Cn1nnnc1NC(=O)c1ccnc(-c2ccc(Cl)cc2Cl)c1Cl [Compound 1-86] | 5 (Level 5: growth control rate is above 85%) |

system: Descurainia sophia; assay: Weeding effect in post-emergence stage; assay type: in vivo; settings: active ingredient 2000 g/ha, 3 weeks after application, fresh weight control rate
In short: as §1

| SMILES | Weeding effect, activity level (growth control rate), Descurainia sophia |
| --- | --- |
| Cn1nnnc1NC(=O)c1ccnc(-c2cncs2)c1Cl [Compound 1-229] | 5 (Level 5: growth control rate is above 85%) |
| O=C(Nc1nnc(C2CC2)o1)c1ccnc(-c2ccc(F)cc2)c1Cl [Compound 1-1257] | 5 (Level 5: growth control rate is above 85%) |
| Cn1nnnc1NC(=O)c1ccnc(-c2ccc(F)cc2)c1C1CC1 [Compound 1-221] | 5 (Level 5: growth control rate is above 85%) |
| Cn1nnnc1NC(=O)c1ccnc(-c2cccc(C#N)c2F)c1Cl [Compound 1-80] | 5 (Level 5: growth control rate is above 85%) |
| Cn1nnnc1NC(=O)c1ccnc(-c2ccc(F)cc2)c1[N+](=O)[O-] [Compound 1-212] | 5 (Level 5: growth control rate is above 85%) |
| Cn1nnnc1NC(=O)c1ccnc(-c2ccccc2OC(F)(F)F)c1Cl [Compound 1-31] | 5 (Level 5: growth control rate is above 85%) |
| Cn1nnnc1NC(=O)c1ccnc(-c2cc(C(C)(C)C)cc(C(C)(C)C)c2)c1Cl [Compound 1-61] | 5 (Level 5: growth control rate is above 85%) |
| Cn1nnnc1NC(=O)c1ccnc(-c2ccc(C(F)(F)F)cc2C(F)(F)F)c1Cl [Compound 1-76] | 5 (Level 5: growth control rate is above 85%) |
| Cn1nnnc1NC(=O)c1ccnc(-c2ccnc(Cl)c2Cl)c1Cl [Compound 1-152] | 5 (Level 5: growth control rate is above 85%) |
| Cn1nnnc1NC(=O)c1ccnc(-c2ccc(C(F)(F)F)nc2)c1Cl [Compound 1-142] | 5 (Level 5: growth control rate is above 85%) |
| Cn1nnnc1NC(=O)c1ccnc(-c2ccc(F)cc2)c1[S+](C)[O-] (stereo not shown) [Compound 1-205] | 5 (Level 5: growth control rate is above 85%) |
| Cc1c(-c2nccc(C(=O)Nc3nnnn3C)c2Cl)cnn1C [Compound 1-170] | 5 (Level 5: growth control rate is above 85%) |
| Cn1nnnc1NC(=O)c1ccnc(-c2cc(F)ccc2F)c1Cl [Compound 1-63] | 5 (Level 5: growth control rate is above 85%) |
| Cn1nnnc1NC(=O)c1ccnc(-c2ccc(C#N)s2)c1Cl [Compound 1-192] | 5 (Level 5: growth control rate is above 85%) |
| Cn1nnnc1NC(=O)c1ccnc(-c2nccs2)c1Cl [Compound 1-230] | 5 (Level 5: growth control rate is above 85%) |
| Cn1nnnc1NC(=O)c1ccnc(-c2cnc(N)nc2)c1Cl [Compound 1-160] | 5 (Level 5: growth control rate is above 85%) |
| Cc1cccc(-c2nccc(C(=O)Nc3nnnn3C)c2Cl)c1 [Compound 1-10] | 5 (Level 5: growth control rate is above 85%) |
| Cn1nnnc1NC(=O)c1ccnc(-c2cccc(Br)c2)c1Cl [Compound 1-21] | 5 (Level 5: growth control rate is above 85%) |
| Cn1nnnc1NC(=O)c1ccnc(C2CC2)c1Cl [Compound 1-3] | 5 (Level 5: growth control rate is above 85%) |
| COc1cccc(-c2nccc(C(=O)Nc3nnnn3C)c2Cl)c1F [Compound 1-72] | 5 (Level 5: growth control rate is above 85%) |
| CSc1c(C(=O)Nc2nnnn2C)ccnc1-c1ccc(C#N)cc1 [Compound 1-2052] | 5 (Level 5: growth control rate is above 85%) |
| Cn1nnnc1NC(=O)c1ccnc(-c2ccc(Cl)cc2Cl)c1Cl [Compound 1-86] | 5 (Level 5: growth control rate is above 85%) |
